Assay results: patent publication US20250051333A1, “POLYMORPH OF KRAS INHIBITOR, PREPARATION METHOD THEREFOR, AND USE THEREOF” (GENFLEET THERAPEUTICS (SHANGHAI) INC., priority 2021, published 2025)

Key:
Assay type in all cases: physicochemical
[1] = Hygroscopicity by DVS testing; settings: for Desorption curve (cycle 1, desorption): DVS 25° C., from 30% RH to 95% RH
Protocol: The dynamic vapor sorption (DVS) analysis may be conducted on the DVS Intrinsic system from Surface Measurement Systems (SMS). Temperature: 25° C.: sample amount: 20-40 mg; protective gas and flow rate: N2, 200 mL/min; dm/dt: 0.002%/min; minimum dm/dt equilibration time: 10 min, maximum equilibration time. 180 min; RH range: room humidity to 95% RH to 0% RH to 95% RH: 0% RH to 95% RH to 0% RH; RH gradient: 10% RH (0% RH to 90% RH & 90% RH to 0% RH): 5% RH (90% RH to 95% RH & 95% RH to 90% RH).

[2] = Solid stability, 60° C./75% RH open, physical stability by XRPD; settings: for Crystalline form: XRPD; for Polymorphic transition: 60° C./75% RH open, up to 1 month
Protocol: Appropriate amounts of samples were weighed and let stand at 60° C./75% RH open to the atmosphere for 7 days, 14 days, and 1 month. Samples of different standing times were evaluated for the physical stability of the crystalline forms by XRPD.

[3] = Humidity induction test: standing at various humidities at room temperature; settings: for Polymorphic transition or not: room temperature, open
Source text: Some of the crystalline forms prepared in the above examples were investigated in a humidity induction test at room temperature.

[4] = Solid stability, 60° C. sealed 24 hours and 40° C./75% RH open one week (XRPD, HPLC, KF); settings: for Purity (%): HPLC; for Water content (%): KF test; for Polymorphic transition or not: XRPD; for HPLC purity change / Polymorphic transition: 60° C. sealed 24 hours and 40° C./75% RH open one week; for Relative to the initial (%): purity
Source text: Proton nuclear magnetic resonance may be conducted on the Bruker 400M nuclear magnetic resonance spectrometer, with deuterated chloroform, deuterated methanol, or dimethyl sulfoxide-d6 as the solvent. Water titration (KF test) may be conducted on the Metrohm 870 KF Titrinoplus from Sigma-Aldrich, with ultrapure water for calibration and Hydranal® R-Composite 5 as the titration reagent. HPLC-grade methanol was used to dissolve the solid sample.
High-performance liquid chromatography (HPLC) may be conducted on the Agilent 1260 high-performance liquid chromatograph system (Waters Xbridge C18, 150×4.6 mm, 5 μm column).
In order to further evaluate the solid stability of the crystalline forms of the present invention, appropriate amounts of samples were for at 60° C. in a sealed condition for 24 hours and at 40° C./75% RH open to the atmosphere for a week.

[5] = Variable-temperature XRPD / heating test of crystalline forms
Protocol: The X-ray powder diffraction (XRPD) analysis may be conducted on the X'Pert3 X-ray powder diffraction analyzer with the following parameters: Cu, kα; Kα1 (Å): 1.540598: Kα2 (Å): 1.544426; Kα2/Kα1 intensity ratio: 0.50; voltage: 45 kV; current: 40 mA; divergent slit: ⅛°; scan mode: continuous: scanning range: 3° to 40°: scanning step: 0.0263°; time of step: 46.665 s: scanning time: 5 min 03 s. Alternatively, the analysis may be conducted on the PANalytical Empyrean X-ray powder diffraction analyzer with the following parameters: Cu, kα; Kα1 (Å): 1.540598: Kα2 (Å); 1.544426: Kα2/Kα1 intensity ratio: 0.50: voltage: 45 kV; current; 40 mA: divergent slit: automatic; scan mode: continuous; scanning range: 3° to 40°; scanning step: 0.0167°; time of step: 17.780 s/33.020 s; scanning time: 5 min 32 s/10 min 13 s.

[6] = 22.5% RH (saturated potassium acetate), 10 days
[7] = 22.5% RH (saturated potassium acetate), 23 days
[8] = 22.5% RH (saturated potassium acetate), 30 days
[9] = 43.2% RH (saturated potassium carbonate), 10 days
[10] = 43.2% RH (saturated potassium carbonate), 23 days
[11] = 43.2% RH (saturated potassium carbonate), 30 days
[12] = 60% RH (stability chamber), 10 days
[13] = 60% RH (stability chamber), 23 days
[14] = 60% RH (stability chamber), 30 days
[15] = 84.2% RH (saturated potassium chloride), 10 days
[16] = 84.2% RH (saturated potassium chloride), 23 days
[17] = 84.2% RH (saturated potassium chloride), 30 days
[18] = 30 days open to the atmosphere at room temperature at 22.5% RH to 84.2% RH
[19] = 23 days open to the atmosphere at room temperature at 43.2% RH to 84.2% RH

For `C=CC(=O)N1CCN2c3c(c(=O)n(-c4c(C)ccnc4C(C)C)c4nc(-c5c(O)cccc5F)c(Cl)cc34)N(C)C(=O)[C@H]2C1` (single isomer, unassigned) [Amorphous form sample], the “Desorption curve (cycle 1, desorption)” value [1] was “a plateau was observed”, the Crystalline form ([2]; 60° C./75% RH (open), 1 month) was “Polymorphic transition” and the Crystalline form ([2]; 60° C./75% RH (open), 7 days) was “Amorphous form”. For the same molecule, the “Polymorphic transition” value [2] was “occurrence of polymorphic transition” and the Crystalline form ([2]; Initial, 0 days) was “Amorphous form”.

With `C=CC(=O)N1CCN2c3c(c(=O)n(-c4c(C)ccnc4C(C)C)c4nc(-c5c(O)cccc5F)c(Cl)cc34)N(C)C(=O)[C@H]2C1` [Crystalline form 3, (4aR,8R)-3-acryloyl-11-chloro-10-(2-fluoro-6-hydroxyphenyl)-8-(2-isopropyl-4-methylpyridin-3-yl)-6-methyl-2,3,4,4a,6,8-hexahydro-1H-pyrazino[1′,2′:4,5]pyrazino[2,3-c][1,8]naphthyridine-5,7-dione] the “Polymorphic transition or not” value [3, 6] was “No”, the “Polymorphic transition or not” value [3, 7] was “No” and the “Polymorphic transition or not” value [3, 8] was “No”. The “Polymorphic transition or not” value [3, 9] was “No”, the “Polymorphic transition or not” value [3, 10] was “No” and the “Polymorphic transition or not” value [3, 11] was “No”. For the same molecule, the “Polymorphic transition or not” value [3, 12] was “No”, the “Polymorphic transition or not” value [3, 13] was “No” and the “Polymorphic transition or not” value [3, 14] was “No”. The “Polymorphic transition or not” value [3, 15] was “No”, the “Polymorphic transition or not” value [3, 16] was “No” and the “Polymorphic transition or not” value [3, 17] was “No”. For the same molecule, the “Polymorphic transition” value [3, 18] was “neither crystalline form 6 (Example 12) nor crystalline form 3 (Example 3) exhibited polymorphic transition”, the “Weight gain (DVS)” value ([1]; 25° C./80% RH) was “less than 0.9%” and the “Hygroscopicity (in words)” value ([1]; DVS at 25° C., 0% RH to 95% RH) was “almost no hygroscopicity”. The “Crystalline form after DVS testing (XRPD)” value ([1]; after DVS testing) was “did not change”, the “Purity (%)” value ([4]; 40° C./75% RH/open, 1 week) was 99.27% and the “Water content (%)” value ([4]; 40° C./75% RH/open, 1 week) was 1.3%. The “Polymorphic transition or not” value ([4]; 40° C./75% RH/open, 1 week) was “No”, the “HPLC purity change” value [4] was “no significant decrease in HPLC purity” and the “Polymorphic transition” value [4] was “no polymorphic transition”. For the same molecule, the “Purity (%)” value ([4]; 60° C./sealed, 1 day) was 99.27%, the “Water content (%)” value ([4]; 60° C./sealed, 1 day) was 1.1% and the “Polymorphic transition or not” value ([4]; 60° C./sealed, 1 day) was “No”. For the same molecule, the “Purity (%)” value ([4]; Initial) was 99.33%, the “Water content (%)” value ([4]; Initial) was 0.9% and the “Relative to the initial (%)” value ([4]; 40° C./75% RH/open, 1 week) was 99.94%. The “Relative to the initial (%)” value ([4]; 60° C./sealed, 1 day) was 99.94%, the Crystalline form ([2]; 60° C./75% RH (open), 1 month) was “Crystalline form 3” and the Crystalline form ([2]; 60° C./75% RH (open), 7 days) was “Crystalline form 3”. The Crystalline form ([2]; 60° C./75% RH (open), 14 days) was “Crystalline form 3”, the “Polymorphic transition” value [2] was “no transition” and the Crystalline form ([2]; Initial, 0 days) was “Crystalline form 3”. The “Crystalline form change on heating (variable-temperature XRPD)” value (“Crystalline form change on heating” below) ([5]; heating to 150° C. and cooling to 30° C. in a N2 atmosphere) was “no crystalline form changes were observed”.

With `C=CC(=O)N1CCN2c3c(c(=O)n(-c4c(C)ccnc4C(C)C)c4nc(-c5c(O)cccc5F)c(Cl)cc34)N(C)C(=O)[C@H]2C1` [Crystalline form 4, (4aR,8R)-3-acryloyl-11-chloro-10-(2-fluoro-6-hydroxyphenyl)-8-(2-isopropyl-4-methylpyridin-3-yl)-6-methyl-2,3,4,4a,6,8-hexahydro-1H-pyrazino[1′,2′:4,5]pyrazino[2,3-c][1,8]naphthyridine-5,7-dione] the “Crystalline form change on heating” value ([5]; heating to 80° C. or 130° C. in a N2 atmosphere) was “no significant crystalline form changes were observed”.

With `C=CC(=O)N1CCN2c3c(c(=O)n(-c4c(C)ccnc4C(C)C)c4nc(-c5c(O)cccc5F)c(Cl)cc34)N(C)C(=O)[C@H]2C1` [Crystalline form 6, (4aR,8R)-3-acryloyl-11-chloro-10-(2-fluoro-6-hydroxyphenyl)-8-(2-isopropyl-4-methylpyridin-3-yl)-6-methyl-2,3,4,4a,6,8-hexahydro-1H-pyrazino[1′,2′:4,5]pyrazino[2,3-c][1,8]naphthyridine-5,7-dione] the “Polymorphic transition or not” value [3, 6] was “No”, the “Polymorphic transition or not” value [3, 7] was “No” and the “Polymorphic transition or not” value [3, 8] was “No”. The “Polymorphic transition or not” value [3, 9] was “No”, the “Polymorphic transition or not” value [3, 10] was “No” and the “Polymorphic transition or not” value [3, 11] was “No”. The “Polymorphic transition or not” value [3, 12] was “No”, the “Polymorphic transition or not” value [3, 13] was “No” and the “Polymorphic transition or not” value [3, 14] was “No”. The “Polymorphic transition or not” value [3, 15] was “No”, the “Polymorphic transition or not” value [3, 16] was “No” and the “Polymorphic transition or not” value [3, 17] was “No”. The “Polymorphic transition” value [3, 18] was “neither crystalline form 6 (Example 12) nor crystalline form 3 (Example 3) exhibited polymorphic transition”, the “Desorption curve (cycle 1, desorption)” value [1] was “a plateau can be observed” and the “Crystallinity after DVS testing” value ([1]; after DVS testing) was “only slightly reduced”. For the same molecule, the “Purity (%)” value ([4]; 40° C./75% RH/open, 1 week) was 99.56%, the “Water content (%)” value ([4]; 40° C./75% RH/open, 1 week) was 8.7% and the “Polymorphic transition or not” value ([4]; 40° C./75% RH/open, 1 week) was “No”. For the same molecule, the “HPLC purity change” value [4] was “no significant decrease in HPLC purity”, the “Polymorphic transition” value [4] was “no polymorphic transition” and the “Purity (%)” value ([4]; 60° C./sealed, 1 day) was 99.62%. For the same molecule, the “Water content (%)” value ([4]; 60° C./sealed, 1 day) was 6.2%, the “Polymorphic transition or not” value ([4]; 60° C./sealed, 1 day) was “No” and the “Purity (%)” value ([4]; Initial) was 99.61%. The “Water content (%)” value ([4]; Initial) was 9.0%, the “Relative to the initial (%)” value ([4]; 40° C./75% RH/open, 1 week) was 99.95% and the “Relative to the initial (%)” value ([4]; 60° C./sealed, 1 day) was 100.01%. The “Polymorphic transition” value [2] was “mild transition” and the Crystalline form ([2]; Initial, 0 days) was “Crystalline form 6”.

For `C=CC(=O)N1CCN2c3c(c(=O)n(-c4c(C)ccnc4C(C)C)c4nc(-c5c(O)cccc5F)c(Cl)cc34)N(C)C(=O)[C@H]2C1` [Crystalline form 8, (4aR,8R)-3-acryloyl-11-chloro-10-(2-fluoro-6-hydroxyphenyl)-8-(2-isopropyl-4-methylpyridin-3-yl)-6-methyl-2,3,4,4a,6,8-hexahydro-1H-pyrazino[1′,2′:4,5]pyrazino[2,3-c][1,8]naphthyridine-5,7-dione], the “Polymorphic transition or not” value [3, 9] was “No”, the “Polymorphic transition or not” value [3, 10] was “No” and the “Polymorphic transition or not” value [3, 12] was “No”. For the same molecule, the “Polymorphic transition or not” value [3, 13] was “No”, the “Polymorphic transition or not” value [3, 15] was “No” and the “Polymorphic transition or not” value [3, 16] was “No”. The “Polymorphic transition” value [3, 19] was “neither crystalline form 8 (Example 40) nor crystalline form 9 (Example 42) exhibited polymorphic transition”.

For `C=CC(=O)N1CCN2c3c(c(=O)n(-c4c(C)ccnc4C(C)C)c4nc(-c5c(O)cccc5F)c(Cl)cc34)N(C)C(=O)[C@H]2C1` [Crystalline form 9, (4aR,8R)-3-acryloyl-11-chloro-10-(2-fluoro-6-hydroxyphenyl)-8-(2-isopropyl-4-methylpyridin-3-yl)-6-methyl-2,3,4,4a,6,8-hexahydro-1H-pyrazino[1′,2′:4,5]pyrazino[2,3-c][1,8]naphthyridine-5,7-dione], the “Polymorphic transition or not” value [3, 9] was “No”, the “Polymorphic transition” value [3, 19] was “neither crystalline form 8 (Example 40) nor crystalline form 9 (Example 42) exhibited polymorphic transition” and the “XRPD pattern after heating test” value ([5]; heated to 100° C. and exposed to air) was “identical to that before heating”.

In the case of `C=CC(=O)N1CCN2c3c(c(=O)n(-c4c(C)ccnc4C(C)C)c4nc(-c5c(O)cccc5F)c(Cl)cc34)N(C)C(=O)[C@H]2C1` [Crystalline form 11, (4aR,8R)-3-acryloyl-11-chloro-10-(2-fluoro-6-hydroxyphenyl)-8-(2-isopropyl-4-methylpyridin-3-yl)-6-methyl-2,3,4,4a,6,8-hexahydro-1H-pyrazino[1′,2′:4,5]pyrazino[2,3-c][1,8]naphthyridine-5,7-dione], the “Crystalline form change on heating” value ([5]; holding at 30° C. for 20 minutes and heating to 100 C in a N2 atmosphere) is reported as “no significant crystalline form changes were observed”.
